Here are results for 26 compounds from patent publication US20210253643A1, “HYDROPHOBIC BIOMOLECULE STABILIZING SCAFFOLD PEPTIDES AND METHODS OF MAKING AND USING SAME” (The University of British Columbia, priority 2018, published 2021).

No end group written: not given here.

A short description of data set [1]: Peptide solubility by turbidity of peptide suspensions at 550 nm. As to conditions: for Solubility (/5): Experiment #2, score 1 to 5; for Solubility: Experiment #1, score 1 to 5, turbidity at 550 nm.
Description: The solubility of the peptides was determined by measuring the turbidity of each of the peptide suspensions at 550 nm. The numbers 1 to 5 were used denote the degree of solubility, where 1 means poor solubility and 5 means high solubility.
The test system of data set [2] is membrane proteins MsbA and FhuA. The data set can be described thus: On-gel reconstitution efficiency of membrane proteins. In kind it is biochemical, E. coli. Further details: key: 1 means poor reconstitution; 5 means efficient reconstitution. On the procedure:
Bands were visualized by Coomassie Blue G250 staining.
(§1) Table 10 summarizes the biophysical, structural and experimental characteristics of the tested NSP peptide variants. […] The number of inter-helix salt bridges formed between the AH1 and AH2 regions for each of the tested amphipathic peptide variants was also determined.

Data set [3] deals with T1, photosynthetic bacterial reaction center (BRC) (Cereibacter sphaeroides, UniProt P0C0Y7+P0C0Y8+P0C0Y9).
T1 construct: placed on H from own knowledge of pIND4-RC1; made in house; host or cells: Rhodobacter sphaeroides RcX (ΔpuhA, ΔpufQBALMX, ΔrshI, ΔppsR), plasmid pIND4-RC1
The data set is described as follows: Thermostability of the BRC complex (absorbance at 803 nm after incubation at 65° C.). In kind it is physicochemical, Rhodobacter sphaeroides. As to conditions: 0.03% LDAO. On the procedure:
Reconstitution of the BRC in peptidiscs, low lipid nanodiscs, and styrene maleic acid nanoparticles: The purified BRC complex (1 mg/mL) was mixed at a 1:1.8 (μg/μg) ratio with NSPr followed by 10-fold dilution in Buffer A to decrease the LDAO concentration to 0.003%. For formation of low-lipid nanodiscs, the purified BRC complex was instead mixed at a 1:2 (mol/mol) ratio with MSP1D1 before dilution. Alternatively, an equivalent amount of BRC was diluted in Buffer A supplemented with 0.03% LDAO, 0.02% DDM, 0.1% SMA or 0.1% SDS as described. After incubation for 10 minutes on ice, aggregated proteins were removed by centrifugation (13,000×g, 10 min at 4° C.). […]
Absorbance spectroscopy: Absorption spectra were recorded using a Hitachi U-3010 spectrophotometer. A blank measurement was recorded in Buffer A(+0.03% LDAO for detergent purified BRC). Samples were incubated in a PCR thermocycler at the indicated temperature, and then measured at the desired time points in a quartz cuvette at room temperature. […]
The photosynthetic bacterial reaction center (BRC) from Rhodobacter sphaeroides was reconstituted into peptidiscs using NSPr. FIG. 21A illustrates the absorbance scans of the BRC (1 μM) in detergent solution (0.03% LDAO (lauryldimethylamine oxide)) and in peptidisc. Scans were normalized to the value measured at 803 nm (the absorbance peak of the accessory bacteriochlorophylls). […]

The subject of the next data set is membrane proteins. The data set is described as follows: Competition with equimolar NSPr-FAM during on-gel reconstitution of membrane proteins. As to conditions: 0 no competition, 100 full competition. In kind it is biochemical. The method, then:
as §1

[4] abbreviates: Experiment #1, score 1 to 5, on-gel, MsbA and FhuA.

Consider “FAEKLKEAVKDYFAKLWDPFAEKLKEAVKDYFAKLWD [Peptide 2F-2F, FAEKLKEAVKDYFAKLWD P FAEKLKEAVKDYFAKLWD]”, for which the “Solubility (/5)” value in data set [1] was 4 /5. Consider “FAEKFKEAVKDYFAKFWDGAAEKLKEAVKDYFAKLWD [Pro/Gly Switch, FAEKFKEAVKDYFAKFWD G AAEKLKEAVKDYFAKLWD]”, for which the “Solubility (/5)” value in data set [1] is reported as 4 /5.

Regarding “FAEAFKEAVKDYFAKFWDPAAEKLKEAVKDYFAKLWD [1 SB Disruption, FAEAFKEAVKDYFAKFWD P AAEKLKEAVKDYFAKLWD]”, in data set [1], the “Solubility (/5)” value was found to be 5. On the same count and under the same terms, the value for “FAEKFKEAVKDYFAKFWDPAAEKLKEAVKDYFAKLW [NSPr-36, FAEKFKEAVKDYFAKFWD P AAEKLKEAVKDYFAKLW]” was 3 /5. On to “Fam-FAEKFKEAVKDYFAKFWD P AAEKLKEAVKDYFAKLWD [NSPr-FAM]”, for which the “Reconstitution Efficiency (/5)” value in data set [2] (setting [4]) came to 5; in data set [2] (Experiment #2, score 1 to 5), 5.

Regarding `CCCCCCCCCCCC[N+](C)(C)[O-]` [LDAO, lauryldimethylamine oxide], the “Time to full denaturation of BRC” value in data set [3] is on record as “less than 4 minutes”. On to “DWLKAFYDKVAEKLKEAAPDWFKAFYDKVAEKFKEAF [NSP, DWLKAFYDKVAEKLKEAA P DWFKAFYDKVAEKFKEAF]”, for which the “Solubility (/5)” value in data set [1] is 3 /5. With “FAEKFKEAVKDYFAKFWD P AAEKLKEAVKDYFAKLWD-pyrenebutyric acid [NSPr-pyrene]”, the Solubility in data set [1] came out at 5. Moreover, the “Solubility (/5)” value in data set [1] is recorded as 5. For the same compound, the “Reconstitution Efficiency (/5)” value was 4 /5 in data set [2] (setting [4]) and 4 /5 in data set [2] (Experiment #2, score 1 to 5). As to “FAEKFKEAVKDQFAKFWDPAAEKLKEAVKDQFAKLWD [Tyr/Gln Switch, FAEKFKEAVKDQFAKFWD P AAEKLKEAVKDQFAKLWD]”, the “Solubility (/5)” value in data set [1] is recorded as 4 /5. For “FAEKLKEAVKDYLAKFWDPAAEKLKEAVKDYFAKLWD [Peptide 2F-1F, FAEKLKEAVKDYLAKFWD P AAEKLKEAVKDYFAKLWD]”, the “Solubility (/5)” value in data set [1] is listed as 5.

With “FAERFREAVRDYFARFWDPAAERLREAVRDYFARLWD [Pos Switch, FAERFREAVRDYFARFWD P AAERLREAVRDYFARLWD]”, the “Solubility (/5)” value in data set [1] was found to be 5. Same read-out and setting: the value for “YAEKFKEAVKDYFAKFYDPAAEKLKEAVKDYFAKLWD [Phe/Tyr Switch, YAEKFKEAVKDYFAKFYD P AAEKLKEAVKDYFAKLWD]” was 4 /5; that for “FAEKFKEAVKDYFAKFWDPAAEKFKEAVKDYFAKLFD [Peptide 4F-3F, FAEKFKEAVKDYFAKFWD P AAEKFKEAVKDYFAKLFD]” was 4 /5. Same read-out and setting: the value for “FAEKFKEAVKDYFAKFWDPFAEKFKEAVKDYFAKFWD [Peptide 4F-4F, FAEKFKEAVKDYFAKFWD P FAEKFKEAVKDYFAKFWD]” was 4 /5; that for “WAEKFKEAVKDYWAKFWDPAAEKLKEAVKDYWAKLWD [Phe/Trp Switch, WAEKFKEAVKDYWAKFWD P AAEKLKEAVKDYWAKLWD]” was 4 /5. As to “Ac-DWLKAFYDKVAEKLKEAAPDWFKAFYDKVAEKFKEAF-NH2 [Ac-NSP-NH2, Ac-DWLKAFYDKVAEKLKEAA P DWFKAFYDKVAEKFKEAF-NH2]”, the “Competition peptide (% NSPr-FAM)” value with membrane proteins (Experiment #1, equimolar NSPr-FAM and variant) worked out at 10%. For the same compound, the “Competition NSPr-FAM (±10%)” value in the data set on membrane proteins (Experiment #2) came to 10%. Moreover, in data set [1], the Solubility is on record as 1 and the “Solubility (/5)” value is reported as 1. Moreover, the “Reconstitution Efficiency (/5)” value in data set [2] (setting [4]) is reported as 2 /5. Besides, the “Reconstitution Efficiency (/5)” value in data set [2] (Experiment #2, score 1 to 5) is reported as 2 /5. As for “FVEKFKEVAKDYFVKFWDPVVEKLKEVAKDYFVKLWD [Ala/Val Switch, FVEKFKEVAKDYFVKFWD P VVEKLKEVAKDYFVKLWD]”, in data set [1], the “Solubility (/5)” value is 5. For `CC(C)C[C@H](NC(=O)[C@H](CCCCN)NC(=O)[C@H](C)NC(=O)[C@H](Cc1ccccc1)NC(=O)[C@H](Cc1ccc(O)cc1)NC(=O)[C@H](CC(=O)O)NC(=O)[C@H](CCCCN)NC(=O)[C@@H](NC(=O)[C@H](C)NC(=O)[C@H](CCC(=O)O)NC(=O)[C@H](CCCCN)NC(=O)[C@H](CC(C)C)NC(=O)[C@H](CCCCN)NC(=O)[C@H](CCC(=O)O)NC(=O)[C@H](C)NC(=O)[C@H](C)NC(=O)[C@@H]1CCCN1C(=O)[C@H](CC(=O)O)NC(=O)[C@H](Cc1c[nH]c2ccccc12)NC(=O)[C@H](Cc1ccccc1)NC(=O)[C@H](CCCCN)NC(=O)[C@H](C)NC(=O)[C@H](Cc1ccccc1)NC(=O)[C@H](Cc1ccc(O)cc1)NC(=O)[C@H](CC(=O)O)NC(=O)[C@H](CCCCN)NC(=O)[C@@H](NC(=O)[C@H](C)NC(=O)[C@H](CCC(=O)O)NC(=O)[C@H](CCCCN)NC(=O)[C@H](Cc1ccccc1)NC(=O)[C@H](CCCCN)NC(=O)[C@H](CCC(=O)O)NC(=O)[C@H](C)NC(=O)[C@H](Cc1ccccc1)NC(=O)[C@@H](N)CS)C(C)C)C(C)C)C(=O)N[C@@H](Cc1c[nH]c2ccccc12)C(=O)N[C@@H](CC(=O)O)C(=O)O` [NSPr-C, C FAEKFKEAVKDYFAKFWD P AAEKLKEAVKDYFAKLWD], in data set [1], the Solubility was determined as 5 and the “Solubility (/5)” value came to 5.

Regarding “FADKFKDAVKEYFAKFWEPAADKLKDAVKEYFAKLWE [Neg Switch, FADKFKDAVKEYFAKFWE P AADKLKDAVKEYFAKLWE]”, in data set [1], the “Solubility (/5)” value is 4 /5. Consider `CC(C)C[C@H](NC(=O)[C@H](CCCCN)NC(=O)[C@H](C)NC(=O)[C@H](Cc1ccccc1)NC(=O)[C@H](Cc1ccc(O)cc1)NC(=O)[C@H](CC(=O)O)NC(=O)[C@H](CCCCN)NC(=O)[C@@H](NC(=O)[C@H](C)NC(=O)[C@H](CCC(=O)O)NC(=O)[C@H](CCCCN)NC(=O)[C@H](CC(C)C)NC(=O)[C@H](CCCCN)NC(=O)[C@H](CCC(=O)O)NC(=O)[C@H](C)NC(=O)[C@H](C)NC(=O)[C@@H]1CCCN1C(=O)[C@H](CC(=O)O)NC(=O)[C@H](Cc1c[nH]c2ccccc12)NC(=O)[C@H](Cc1ccccc1)NC(=O)[C@H](CCCCN)NC(=O)[C@H](C)NC(=O)[C@H](Cc1ccccc1)NC(=O)[C@H](Cc1ccc(O)cc1)NC(=O)[C@H](CC(=O)O)NC(=O)[C@H](CCCCN)NC(=O)[C@@H](NC(=O)[C@H](C)NC(=O)[C@H](CCC(=O)O)NC(=O)[C@H](CCCCN)NC(=O)[C@H](Cc1ccccc1)NC(=O)[C@H](CCCCN)NC(=O)[C@H](CCC(=O)O)NC(=O)[C@H](C)NC(=O)[C@H](Cc1ccccc1)NC(=O)[C@H](Cc1c[nH]cn1)NC(=O)[C@H](Cc1c[nH]cn1)NC(=O)[C@H](Cc1c[nH]cn1)NC(=O)[C@H](Cc1c[nH]cn1)NC(=O)[C@H](Cc1c[nH]cn1)NC(=O)[C@@H](N)Cc1c[nH]cn1)C(C)C)C(C)C)C(=O)N[C@@H](Cc1c[nH]c2ccccc12)C(=O)N[C@@H](CC(=O)O)C(=O)O` [NSPr-6xHis, HHHHHH FAEKFKEAVKDYFAKFWD P AAEKLKEAVKDYFAKLWD], for which the “Solubility (/5)” value in data set [1] was 3 /5. “FAEKFKEAVKPYFAKFWDPAAEKLKEAVKPYFAKLWD [NSPr-3P, FAEKFKEAVKPYFAKFWD P AAEKLKEAVKPYFAKLWD]”: in data set [1], the Solubility is 5 and the “Solubility (/5)” value stood at 5. With “FAEKFKEAVKDYFAKLWDPAAEKLKEAVKDYFAKLWD [Peptide 3F-1F, FAEKFKEAVKDYFAKLWD P AAEKLKEAVKDYFAKLWD]”, the “Solubility (/5)” value in data set [1] worked out at 5.

For “FAEAFKEAVKDYFAAFWDPAAEKLKEAVKDYFAKLWD [2 SB Disruption, FAEAFKEAVKDYFAAFWD P AAEKLKEAVKDYFAKLWD]”, the “Solubility (/5)” value in data set [1] is 5.

For “FAAKFKEAVKDYFAKFWDPAAEKLAEAVADYFAALWD [3 SB Disruption H2, FAAKFKEAVKDYFAKFWD P AAEKLAEAVADYFAALWD]”, the “Solubility (/5)” value in data set [1] was 5. In the case of “FAEKFKEAVKDYFAKFWDGAAEKLKEAVKDYFAKLWD [NSPr-G, FAEKFKEAVKDYFAKFWD G AAEKLKEAVKDYFAKLWD]”, the Solubility in data set [1] is recorded as 5.

As to “FAEKFKEAVKDYFAKFWDPAAEKLKEAVKDYFAKFWD [Peptide 4F-2F, FAEKFKEAVKDYFAKFWD P AAEKLKEAVKDYFAKFWD]”, the “Solubility (/5)” value in data set [1] is 4 /5.
